Experiments:
E. coli ATCC 25922 [1] = tested on: E. coli ATCC 25922; parameters: unit not given beside the values; conditions: colistin alone, unexplained range under the value, probably reference range; cited from earlier work
[2] = tested on: Acinetobacter Baumannii ATCC 19606; assay: Combination MIC of colistin for antibiotic adjuvant potential; assay type: cell-based; parameters: unit not given beside the values; conditions: colistin alone; Acinetobacter ATCC 19606
Procedure: (§1) The MIC of colistin was determined against the bacteria specified below, by itself or in the presence of 1 ug/ml or 10 ug/ml of a compound disclosed herein (nd=not determined): […]

[3] = tested on: Pseudomonas aeurginosa ATCC 27853; assay: as above; assay type: cell-based; parameters: unit not given beside the values; conditions: colistin alone; Pseudomonas ATCC 27853
Procedure: as §1

E. coli ATCC 25922 [4] = assay: as above; assay type: cell-based; parameters: unit not given beside the values; conditions: colistin alone
Procedure: as §1

[5] = tested on: Klebsiella pneumoniae (Colistin Sensitive) MMX214; assay: as above; assay type: cell-based; conditions: colistin alone; K. pneumoniae colistin sensitive MMX214
Procedure: as §1

[6] = tested on: Klebsiella pneumoniae (Colistin Resistant) MMX8390; assay: as above; assay type: cell-based; conditions: colistin alone; K. pneumoniae colistin resistant MMX8390
Procedure: as §1

**Q.** With colistin as the substance, how does the “MIC of colistin, range in parentheses” value (E. coli ATCC 25922 [1]) read?
**A.** (0.25-2)

**Q.** What about the MIC of colistin [2] of the same substance?
**A.** 0.25

**Q.** What about the MIC of colistin [3] of the same substance?
**A.** 0.25

**Q.** And the MIC of colistin (E. coli ATCC 25922 [4])?
**A.** 0.25

**Q.** What about the MIC of colistin [5] of the same substance?
**A.** 2

**Q.** And the MIC of colistin [6]?
**A.** 16

Source: US11306067B2, “Diphenyl substituted thiophene-2-amide derivatives and pharmaceutical compositions thereof useful as antimicrobial” (DENOVAMED INC., priority 2018, dated 2022)
